pIC50: −log10 of the molar value.

One assay deals with Integrin alpha-V/beta-3 (Homo sapiens, UniProt P05106+P06756). In words: Inhibition of human alpha-v-beta-3 integrin receptor by ELISA. It counts as protein-complex assay. (In general: ELISA stands for enzyme-linked immunosorbent assay.)
Sequence of Integrin alpha-V/beta-3 (P05106 27-788 limits assumed): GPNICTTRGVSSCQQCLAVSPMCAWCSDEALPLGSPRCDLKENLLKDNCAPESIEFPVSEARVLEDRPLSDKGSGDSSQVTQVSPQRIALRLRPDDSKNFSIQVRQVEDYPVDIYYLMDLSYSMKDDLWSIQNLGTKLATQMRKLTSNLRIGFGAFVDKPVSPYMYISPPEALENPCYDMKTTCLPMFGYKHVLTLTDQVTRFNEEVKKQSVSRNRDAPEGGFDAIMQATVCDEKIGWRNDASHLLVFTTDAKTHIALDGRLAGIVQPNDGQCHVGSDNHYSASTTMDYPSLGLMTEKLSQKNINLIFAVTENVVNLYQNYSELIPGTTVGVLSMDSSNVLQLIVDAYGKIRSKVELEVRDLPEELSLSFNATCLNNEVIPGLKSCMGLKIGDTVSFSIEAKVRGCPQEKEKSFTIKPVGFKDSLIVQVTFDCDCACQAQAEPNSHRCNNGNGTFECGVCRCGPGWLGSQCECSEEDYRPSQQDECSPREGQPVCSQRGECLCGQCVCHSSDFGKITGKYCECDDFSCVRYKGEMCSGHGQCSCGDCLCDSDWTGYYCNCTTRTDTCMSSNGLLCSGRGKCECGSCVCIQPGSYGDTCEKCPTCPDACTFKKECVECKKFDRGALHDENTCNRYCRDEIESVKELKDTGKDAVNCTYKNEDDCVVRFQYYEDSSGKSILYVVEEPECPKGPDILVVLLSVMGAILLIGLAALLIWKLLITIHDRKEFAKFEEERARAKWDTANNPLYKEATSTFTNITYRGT
Sequence of Integrin alpha-V/beta-3 (P06756 31-889 limits assumed): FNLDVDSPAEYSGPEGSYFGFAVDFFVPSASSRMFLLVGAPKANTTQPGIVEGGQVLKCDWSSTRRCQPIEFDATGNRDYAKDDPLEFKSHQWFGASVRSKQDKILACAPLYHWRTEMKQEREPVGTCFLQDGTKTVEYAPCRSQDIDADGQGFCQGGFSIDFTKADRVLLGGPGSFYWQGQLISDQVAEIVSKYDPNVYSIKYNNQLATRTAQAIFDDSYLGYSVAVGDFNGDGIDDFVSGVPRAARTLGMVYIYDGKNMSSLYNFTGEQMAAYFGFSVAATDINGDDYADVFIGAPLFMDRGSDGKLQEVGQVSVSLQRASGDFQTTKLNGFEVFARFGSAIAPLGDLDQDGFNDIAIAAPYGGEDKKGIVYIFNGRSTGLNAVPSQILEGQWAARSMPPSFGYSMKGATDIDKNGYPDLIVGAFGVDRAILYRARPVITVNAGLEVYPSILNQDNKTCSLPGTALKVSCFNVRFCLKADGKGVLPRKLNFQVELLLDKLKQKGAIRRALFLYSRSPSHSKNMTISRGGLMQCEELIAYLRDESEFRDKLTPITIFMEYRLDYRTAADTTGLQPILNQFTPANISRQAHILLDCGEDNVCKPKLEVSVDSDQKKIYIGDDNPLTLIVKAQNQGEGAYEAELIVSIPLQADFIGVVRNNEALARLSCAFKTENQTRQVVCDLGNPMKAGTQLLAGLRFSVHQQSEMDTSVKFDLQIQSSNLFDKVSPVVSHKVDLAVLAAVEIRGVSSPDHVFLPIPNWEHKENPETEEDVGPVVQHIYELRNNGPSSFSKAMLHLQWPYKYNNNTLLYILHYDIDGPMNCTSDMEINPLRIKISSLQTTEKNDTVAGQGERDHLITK
Sequence of Integrin alpha-V/beta-3 (P06756 891-1048 limits assumed): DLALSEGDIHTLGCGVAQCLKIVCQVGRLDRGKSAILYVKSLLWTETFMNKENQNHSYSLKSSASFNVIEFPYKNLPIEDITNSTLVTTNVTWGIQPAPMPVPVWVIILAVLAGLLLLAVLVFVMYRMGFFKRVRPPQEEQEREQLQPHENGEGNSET
With `O=C(O)/C=C/c1ccccc1O[C@@H]1O[C@H](CO)[C@@H](O)[C@H](O)[C@H]1O` [MELILOTOSIDE], the pIC50 (as a rule, −log10 of the IC50, conventionally taken in molar units) is 4.74.

A further assay addresses T1, Cathepsin K (Homo sapiens, UniProt P43235).
T1 sequence (P43235 whole entry): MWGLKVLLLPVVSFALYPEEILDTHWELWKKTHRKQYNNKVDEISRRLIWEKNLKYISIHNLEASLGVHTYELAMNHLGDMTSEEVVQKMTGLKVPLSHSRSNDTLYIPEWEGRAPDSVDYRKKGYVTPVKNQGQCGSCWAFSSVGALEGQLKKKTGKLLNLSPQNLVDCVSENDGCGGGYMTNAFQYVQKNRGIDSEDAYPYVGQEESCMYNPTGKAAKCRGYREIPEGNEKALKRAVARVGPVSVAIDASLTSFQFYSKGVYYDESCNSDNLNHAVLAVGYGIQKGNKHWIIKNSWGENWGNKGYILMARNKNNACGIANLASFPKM
In words: Inhibition of human Cathepsin K.
Take `O=C1C[C@@H](c2ccc(O)c(-c3c(O)cc(O)c4c(=O)cc(-c5ccc(O)cc5)oc34)c2)Oc2cc(O)cc(O)c21`: the pIC50 was 5.85. On to `COc1cc2c([nH]c3c4c(c(C)cc32)OC(C)(C)C=C4)c(-c2c(O)c(OC)cc3c2[nH]c2c4c(c(C)cc23)OC(C)(C)C=C4)c1O`, for which the negative logarithm of the IC50 (pIC50) was 5.72. Compound `COc1ccc(-c2cc(=O)c3c(O)cc(OC)c(-c4cc(-c5cc(=O)c6c(O)cc(O)cc6o5)ccc4O)c3o2)cc1` [7'',4'''-dimethylamentoflavone] had a pIC50 of 5.80.

Compound `O=c1cc(-c2ccc(O)c(-c3c(O)cc(O)c4c(=O)cc(-c5ccc(O)cc5)oc34)c2)oc2cc(O)cc(O)c12` [AMENTOFLAVONE] gave a pIC50 of 5.73. `COc1ccc(-c2cc(=O)c3c(O)cc(O)cc3o2)cc1-c1c(O)cc(O)c2c(=O)cc(-c3ccc(O)cc3)oc12` [BILOBETIN] gave a pIC50 of 5.82. Compound `O=c1cc(-c2ccc(Oc3c(O)cc4oc(-c5ccc(O)cc5)cc(=O)c4c3O)cc2)oc2cc(O)cc(O)c12` [HINOKIFLAVONE] had a pIC50 of 5.81. The pIC50 values of the last two compounds are within 0.2 log units of each other. `CC(=O)N[C@@H](CC(C)C)C(=O)N[C@@H](CC(C)C)C(=O)N[C@H](C=O)CCCNC(=N)N` [LEUPEPTIN] had a pIC50 of 7.37. For `COc1ccc(-c2cc(=O)c3c(O)cc(O)c(-c4cc(-c5cc(=O)c6c(O)cc(O)cc6o5)ccc4O)c3o2)cc1` [PODOCARPUSFLAVONE A], the pIC50 was 5.60. Compared with the last compound, the pIC50 is 1.77 log units lower.

The target of the next assay is Matrix metalloproteinase-9 (Homo sapiens, UniProt P14780). In words: Inhibition of human MMP9 by quenched fluorescense assay.
Sequence of Matrix metalloproteinase-9 (P14780 whole entry): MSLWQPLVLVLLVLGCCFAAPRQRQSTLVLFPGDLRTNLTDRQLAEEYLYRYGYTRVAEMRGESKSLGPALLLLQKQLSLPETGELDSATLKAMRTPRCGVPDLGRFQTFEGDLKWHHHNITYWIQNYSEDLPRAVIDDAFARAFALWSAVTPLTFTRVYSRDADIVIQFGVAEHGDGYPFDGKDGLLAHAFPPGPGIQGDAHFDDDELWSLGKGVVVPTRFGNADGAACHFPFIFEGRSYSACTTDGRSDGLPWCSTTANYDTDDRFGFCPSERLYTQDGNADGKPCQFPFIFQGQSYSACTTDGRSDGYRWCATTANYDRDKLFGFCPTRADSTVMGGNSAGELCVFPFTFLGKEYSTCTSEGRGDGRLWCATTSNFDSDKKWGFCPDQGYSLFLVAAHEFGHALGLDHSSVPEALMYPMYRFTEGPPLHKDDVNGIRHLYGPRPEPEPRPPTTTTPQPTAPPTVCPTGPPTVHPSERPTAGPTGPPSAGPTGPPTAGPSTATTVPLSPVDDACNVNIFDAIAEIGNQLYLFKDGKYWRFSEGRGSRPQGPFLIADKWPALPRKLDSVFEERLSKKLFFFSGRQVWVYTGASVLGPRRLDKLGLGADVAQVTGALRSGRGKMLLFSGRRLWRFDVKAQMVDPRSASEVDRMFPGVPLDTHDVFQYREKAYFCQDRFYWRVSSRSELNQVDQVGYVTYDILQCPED
Consider `O=C(NO)[C@@H](Cc1ccccc1)NS(=O)(=O)c1ccc(-c2ccccc2)cc1`, for which the pIC50 is 8.15. `C[C@@H]1C[C@@H](O)[C@@]2(O)[C@@]13C[C@@H](OC(=O)[C@@H]3O)[C@](C)(O)[C@@]21COC1=O` [ANIASATIN] gave a negative logarithm of the IC50 (pIC50) of 4.75. With `O=c1c2ccccc2nc2n1CCc1c-2[nH]c2ccccc12` [RUTAECARPINE], the negative logarithm of the IC50 (pIC50) was 4.56.

Values taken from ChEMBL document CHEMBL1146175, “Natural inhibitors targeting osteoclast-mediated bone resorption” (Bioorg Med Chem Lett, 2006).
